Laboratory results as given in US11541237B2, “Methods for improving shoulder range of motion and functionality” (priority 2013, dated 2023).

Legend:
[1] = system: A (delta) and C sensory fibers; conditions: cited from earlier work; for sensory blocking properties: compared with the corresponding R (dextro)-enantiomers
[2] = cited from earlier work
saphenous nerve = assay: Saphenous nerve injection, patient with severe leg and foot pain due to surgical trauma (Example 2); type: in vivo, human; conditions: ropivacaine 0.25% (5 ml)
Protocol: A patient with severe leg and foot pain for several years due to prior surgical trauma resulting from an initial bunionectomy and other follow-up surgeries was treated by a saphenous nerve injection of ropivacaine 0.25% (5 ml) after exquisite tenderness was noted on palpation of the saphenous nerve greater than 14 cm proximal to the level of their foot trauma. However, much of their symptomatology was in the distribution of other nerves. Indeed, they had motor dysfunction of the toes and their saphenous nerve is a purely sensory nerve. […] They could walk like they had not in many years.

migraine = conditions: direct application to region of nasal epithelium overlying the SPG using a cotton swab, versus drip and spray methods; cited from earlier work
suprascapular nerve [3] = assay: Direct suprascapular injection and subsequent fanlike injection, patient with CRPS of left arm and hand with frozen shoulder syndrome (Example 7); type: in vivo, human; conditions: lidocaine 1% (4 ml) together with methylprednisolone acetate (10 mg), direct suprascapular then fanlike injection, a few treatment sessions
Source text: A patient had severe CRPS of the left arm and hand with frozen shoulder syndrome and severe edema, allodynia coldness and nail changes involving their left hand for over 18 months. Their condition is shown in the photographs of FIGS. 6 and 7. They failed all therapies to the time of presentation.

[4] = intranasally administered; cited from earlier work
suprascapular nerve [5] = assay: Fanlike injection in the vicinity of the suprascapular nerve, patient with pain and decreased range of motion after rotator cuff repair (Example 1); type: in vivo, human; conditions: many months after torn rotator cuff repair, lidocaine 1% (3 ml)
Protocol: A patient with pain and decreased range of motion for many months following repair of a torn rotator cuff, was treated using a fanlike injection of lidocaine 1% (3 ml) merely in the vicinity of the suprascapular nerve, hitting small fibers in the area.
This block differs from classic suprascapular block in that the area around the nerve was targeted and treated, rather than the nerve itself. This procedure was easier to perform than trying to block the suprascapular nerve directly, which would have been much more difficult to target or specific, direct treatment. In terms of neurostimulation, or blocking with energy sources such as light, laser, infrasound or electricity, it means that transcutaneous methods can work well by targeting the area around a major nerve, or merely within its general area of innervation, and not necessarily the nerve itself.

[6] = system: facial pain / facial neuropathies; assay: Intranasal local anesthetic in patients with facial pain after facial trauma (Examples 4-6); type: in vivo, human
Protocol: A patient had severe facial pain following a large metal beam impact which left them with facial neuropathies and headache that adversely affected their ability to eat and speak was treated with intranasal bupivacaine 0.5% (4 ml). […] They improved with subsequent repeat treatments and was able to perform job and daily activities normally. […] A patient with severe facial pain resulting from being hit in the face with a pipe that caused four facial fractures, for seven years had numbness in certain areas of their face and severe pain in the area of their left eye, as well as generalized facial and head pain. They were treated with intranasal bupivacaine 0.5% (4 ml). […] A patient had sustained facial nerve injuries from a close range gunshot wound to the face. They were in excruciating pain and could not speak or eat without severe duress. […] They had been in agony for over 5 years previous to this treatment.

[7] = system: Supratrochlear nerve / occipital nerves with SPG; assay: Injection of supratrochlear or occipital nerves combined with SPG block; type: in vivo, human
Source text: Another aspect of the invention is the combination of stimulation of SPG with branches of Trigeminal nerves, or occipital nerves. There is known C-2 and 3 connection with Trigeminal nerve and SPG and likely with C1.

radial nerve = assay: Injection in fanlike distribution of the radial nerve, patient with CRPS of right hand (Example 3); type: in vivo, human; conditions: single treatment, bupivacaine 0.25% (3 ml)
Source text: A patient with CRPS and severe pain, including pins and needles sensation in their right hand for over 20 years, presented with these symptoms and major discoloration in their right arm due to compartment syndrome many years ago and could barely open and close their fist.

[8] = Example 4, patient, metal beam impact, intranasal bupivacaine 0.5% (4 ml)

CCCCN1CCCC[C@H]1C(=O)Nc1c(C)cccc1C [S (levo)-enantiomer of bupivacaine]
sensory blocking properties [1]: better sensory blocking properties
physiological toxicity ([2]; compared with the corresponding R (dextro)-enantiomers): lower physiological toxicity

CCCN1CCCC[C@H]1C(=O)Nc1c(C)cccc1C [ropivacaine]
block of nerve fibers such as A (delta) and C sensory fibers versus motor neurons ([1]; compared with bupivacaine): more preferentially than other neurons such as motor neurons
cardiovascular and central nervous system toxicity ([2]; compared with bupivacaine): lower cardiovascular and central nervous system toxicity than bupivacaine
systemic toxicity profile ([2]; compared with other similar relatively long acting potent local anesthetics): better systemic toxicity profile
relief of pain (saphenous nerve): almost complete relief of pain
sensation and strength in the distribution of other peripheral nerves, including the peroneal nerves (saphenous nerve): normalized sensation and strength
time to reported pain relief (saphenous nerve): ≤ 10 min
inhibition of migraine (migraine): most rapid and most effective inhibition of migraine

CCN(CC)CC(=O)Nc1c(C)cccc1C [lidocaine]
symptoms and findings of CRPS (frozen shoulder, edema, allodynia, coldness, nail changes) (suprascapular nerve [3]): completely reversed these symptoms and findings
duration of action [4]: shorter than about one hour
pain and range of motion (suprascapular nerve [5]): remarkable improvement in pain and range of motion

CCCCN1CCCCC1C(=O)Nc1c(C)cccc1C (stereo not drawn) [bupivacaine]
relief of pain [6, 8]: almost complete relief of pain
time to reported pain relief [6, 8]: ≤ 3 min
ability to open mouth, eat and speak ([6]; Example 4, patient, intranasal bupivacaine 0.5% (4 ml)): could open their mouth wide, eat normally and could speak for normal periods of time and at normal volume
time to reported pain relief ([6]; Example 5, patient, four facial fractures, pain for seven years, intranasal bupivacaine 0.5% (4 ml)): ≤ 1 min
relief of pain ([6]; Example 5, patient, intranasal bupivacaine 0.5% (4 ml)): complete relief of pain
pain management ([6]; Example 6, patient, gunshot wound to the face, intranasal bupivacaine 0.5% (3-4 ml) monthly, several years follow up): manages their pain well
adverse sequela ([6]; Example 6, intranasal bupivacaine 0.5% (3-4 ml) monthly, several years follow up): no adverse sequela
result of subsequent SPG block ([7]; injection of bupivacaine 0.5% to the Supratrochlear nerve): better result with SPG block subsequently
headache ([7]; injection of occipital nerves with 0.5%, with SPG block): headache was further decreased with SPG block
symptoms and hand function (radial nerve; patient with CRPS over 20 years, fanlike distribution of radial nerve): felt dramatically better and could open and close their hand and make and maintain a fist
neurotrophic findings of decreased temperature, edema, allodynia, discoloration and severe restriction of range of motion (radial nerve; patient with CRPS): decreased dramatically

CCCN1CCCC[C@H]1C(=O)Nc1c(C)cccc1C (single isomer, unassigned) [S (levo)-enantiomer of ropivacaine]
sensory blocking properties [1]: better sensory blocking properties
